Reference: publication PMC4516224 (Pharmaceutical research, 2008)

Key:
[1] = rabbit; in the absence of an inhibitor
rPCEC [2] = experiment: Cell proliferation assay; format: cell-based, rabbit; settings: steroid 500 μM with erythromycin, 12 h, data not shown
rPCEC [3] = experiment: Cellular accumulation of [14C] erythromycin in rPCEC; format: cell-based, rabbit
MRP2 = MRP2 (Homo sapiens, UniProt Q92887); experiment: Bi-directional transport across MDCK-MRP2 cell monolayers; format: in vitro ADME; settings: pH 7.4
Sequence of MRP2 (Q92887 whole entry): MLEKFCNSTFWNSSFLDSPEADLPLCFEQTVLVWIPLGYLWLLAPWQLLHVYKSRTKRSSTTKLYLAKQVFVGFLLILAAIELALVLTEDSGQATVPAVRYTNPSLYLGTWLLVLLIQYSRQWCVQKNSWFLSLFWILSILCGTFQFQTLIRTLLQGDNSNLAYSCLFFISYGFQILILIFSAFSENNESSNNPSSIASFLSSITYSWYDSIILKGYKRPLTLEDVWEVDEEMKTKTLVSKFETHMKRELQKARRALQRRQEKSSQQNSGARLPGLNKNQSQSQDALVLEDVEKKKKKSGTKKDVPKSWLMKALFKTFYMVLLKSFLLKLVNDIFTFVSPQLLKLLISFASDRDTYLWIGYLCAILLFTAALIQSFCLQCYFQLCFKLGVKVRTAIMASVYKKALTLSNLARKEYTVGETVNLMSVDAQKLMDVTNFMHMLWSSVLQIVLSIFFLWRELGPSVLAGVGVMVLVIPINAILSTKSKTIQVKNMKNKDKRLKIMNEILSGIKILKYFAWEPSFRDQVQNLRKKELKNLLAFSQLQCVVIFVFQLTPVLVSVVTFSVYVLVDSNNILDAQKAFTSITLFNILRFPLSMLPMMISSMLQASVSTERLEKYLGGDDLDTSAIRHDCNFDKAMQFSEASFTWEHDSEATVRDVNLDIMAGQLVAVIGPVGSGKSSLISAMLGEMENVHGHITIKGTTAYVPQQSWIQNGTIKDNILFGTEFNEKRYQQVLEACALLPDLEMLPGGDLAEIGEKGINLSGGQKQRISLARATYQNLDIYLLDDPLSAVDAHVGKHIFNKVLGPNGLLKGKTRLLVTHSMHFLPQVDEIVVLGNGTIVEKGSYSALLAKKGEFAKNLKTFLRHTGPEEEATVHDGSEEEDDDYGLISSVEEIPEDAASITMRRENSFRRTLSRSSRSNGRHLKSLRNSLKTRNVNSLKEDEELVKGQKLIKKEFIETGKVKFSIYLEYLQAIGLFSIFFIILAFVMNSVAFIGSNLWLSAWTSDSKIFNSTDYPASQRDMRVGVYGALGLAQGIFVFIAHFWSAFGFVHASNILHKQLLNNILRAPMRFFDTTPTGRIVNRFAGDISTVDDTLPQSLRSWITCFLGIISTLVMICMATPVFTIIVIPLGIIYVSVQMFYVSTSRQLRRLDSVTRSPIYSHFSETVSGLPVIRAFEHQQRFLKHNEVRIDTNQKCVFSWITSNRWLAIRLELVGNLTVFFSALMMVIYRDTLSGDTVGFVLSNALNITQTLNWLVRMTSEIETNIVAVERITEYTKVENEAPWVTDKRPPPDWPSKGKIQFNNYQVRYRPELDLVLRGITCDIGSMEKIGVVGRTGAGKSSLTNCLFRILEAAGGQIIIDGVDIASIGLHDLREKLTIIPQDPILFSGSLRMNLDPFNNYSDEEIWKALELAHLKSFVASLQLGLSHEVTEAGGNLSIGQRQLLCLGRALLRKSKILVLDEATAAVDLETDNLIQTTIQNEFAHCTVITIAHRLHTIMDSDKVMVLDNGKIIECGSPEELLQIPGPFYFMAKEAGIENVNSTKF

P-gp = P-gp (Homo sapiens, UniProt P08183); experiment: Bi-directional transport across MDCK-MDR1 cell monolayers; format: in vitro ADME; settings: MDCK-MDR1, pH 7.4
Sequence of P-gp (P08183 whole entry): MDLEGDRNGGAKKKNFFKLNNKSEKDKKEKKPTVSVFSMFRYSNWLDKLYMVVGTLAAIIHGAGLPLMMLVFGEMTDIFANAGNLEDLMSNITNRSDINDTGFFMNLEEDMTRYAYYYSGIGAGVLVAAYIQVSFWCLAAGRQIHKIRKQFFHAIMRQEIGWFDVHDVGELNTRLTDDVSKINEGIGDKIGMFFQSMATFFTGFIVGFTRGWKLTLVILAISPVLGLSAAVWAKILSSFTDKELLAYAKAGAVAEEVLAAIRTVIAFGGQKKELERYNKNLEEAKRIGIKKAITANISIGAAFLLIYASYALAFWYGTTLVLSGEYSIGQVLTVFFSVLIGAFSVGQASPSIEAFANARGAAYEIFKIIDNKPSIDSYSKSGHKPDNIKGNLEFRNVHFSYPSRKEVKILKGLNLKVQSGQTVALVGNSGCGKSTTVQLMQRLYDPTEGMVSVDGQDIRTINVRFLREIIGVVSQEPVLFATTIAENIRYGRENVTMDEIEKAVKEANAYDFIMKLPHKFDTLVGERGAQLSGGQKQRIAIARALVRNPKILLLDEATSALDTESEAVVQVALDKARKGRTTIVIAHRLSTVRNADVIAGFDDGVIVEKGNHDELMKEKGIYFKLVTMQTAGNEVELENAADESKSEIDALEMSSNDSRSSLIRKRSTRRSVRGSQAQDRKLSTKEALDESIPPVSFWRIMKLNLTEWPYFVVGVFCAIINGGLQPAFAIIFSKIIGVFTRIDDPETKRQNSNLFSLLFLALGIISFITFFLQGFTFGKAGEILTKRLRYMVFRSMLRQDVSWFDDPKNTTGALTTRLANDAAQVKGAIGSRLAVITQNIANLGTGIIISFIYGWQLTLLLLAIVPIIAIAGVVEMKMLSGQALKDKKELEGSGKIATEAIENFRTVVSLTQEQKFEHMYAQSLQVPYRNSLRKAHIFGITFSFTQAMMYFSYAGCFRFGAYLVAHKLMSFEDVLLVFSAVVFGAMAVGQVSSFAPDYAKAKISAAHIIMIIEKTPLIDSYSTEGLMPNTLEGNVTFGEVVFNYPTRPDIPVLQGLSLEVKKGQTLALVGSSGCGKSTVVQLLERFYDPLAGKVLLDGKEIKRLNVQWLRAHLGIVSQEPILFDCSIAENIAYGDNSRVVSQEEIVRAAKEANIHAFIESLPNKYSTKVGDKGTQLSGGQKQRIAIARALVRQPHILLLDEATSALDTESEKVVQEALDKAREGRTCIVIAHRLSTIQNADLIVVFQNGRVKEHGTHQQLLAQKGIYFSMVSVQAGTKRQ

CC[C@H]1OC(=O)[C@H](C)[C@@H](O[C@H]2C[C@@](C)(OC)[C@@H](O)[C@H](C)O2)[C@H](C)[C@@H](O[C@@H]2O[C@H](C)C[C@H](N(C)C)[C@H]2O)[C@](C)(O)C[C@@H](C)C(=O)[C@H](C)[C@@H](O)[C@]1(C)O [Ery, erythromycin]
Corneal absorption rate constant (ka) of erythromycin [1]: 4.54±0.62×10^−5 min^−1

C[C@]12C=CC(=O)C=C1CC[C@@H]1[C@@H]2[C@@H](O)C[C@@]2(C)[C@H]1CC[C@]2(O)C(=O)CO [PL, prednisolone]
Cellular toxicity (percentage of viable cells vs control) (rPCEC [2]): not toxic
Inhibition of erythromycin efflux (rPCEC [3]; steroid 500 μM): ~80%

C[C@]12C=CC(=O)C=C1CC[C@@H]1[C@@H]2C(=O)C[C@@]2(C)[C@H]1CC[C@]2(O)C(=O)CO [PS, prednisone]
Papp A→B at 3.5 h, 10 μM (MRP2): 6.04 ± 0.15 ×10⁻⁶ cm/s
Papp B→A at 3.5 h, 10 μM (MRP2): 17.8 ± 0.22 ×10⁻⁶ cm/s
Papp A→B at 3.5 h, 10 μM (P-gp): 6.97 ± 0.21 ×10⁻⁶ cm/s
Papp B→A at 3.5 h, 10 μM (P-gp): 17.7 ± 0.47 ×10⁻⁶ cm/s
Cellular toxicity (percentage of viable cells vs control) (rPCEC [2]): not toxic
Inhibition of erythromycin efflux (rPCEC [3]; steroid 500 μM): ~80%

CN(C)C(=O)CCSC(SCCC(=O)O)c1cccc(/C=C/c2ccc3ccc(Cl)cc3n2)c1 (stereo not shown) [MK571]
Cellular accumulation of [^14C] erythromycin in the presence of specific inhibitor, relative to control (rPCEC [3]; [14C] erythromycin 0.25 μCi/ml, 15 min, GF120918 2 μM, MK571 50 μM): 310%

C[C@H]1C[C@@H]2[C@H]([C@@H](O)C[C@@]3(C)[C@H]2CC[C@]3(O)C(=O)CO)[C@@]2(C)C=CC(=O)C=C12 [MPL, 6α-methyl prednisolone]
Cellular toxicity (percentage of viable cells vs control) (rPCEC [2]): not toxic
Cellular accumulation of [^14C] erythromycin increased by, relative to control (rPCEC [3]; [14C] erythromycin 0.25 μCi/ml, 15 min, steroid 500 μM): 375%
Inhibition of erythromycin efflux (rPCEC [3]; steroid 500 μM): complete inhibition
